In patent US8357705B2 (priority 2008, dated 2013):

Assays:
[1] = tested on: sodium channel binding site 2; set-up: species or system rat

| SMILES | melting point [°C] | Inhibition (BTX) Mean [% at 10 μM] [1] [%] |
| --- | --- | --- |
| CN(C)C1(c2ccccc2)CCC(N(C(=O)C(F)(F)F)C(Cc2c[nH]c3ccccc23)c2nnn[nH]2)CC1 (stereo not shown) | 195 to 228 |  |
| Cc1cnc([C@@H](Cc2c[nH]c3ccccc23)NC2CCC(c3ccccc3)(N(C)C)CC2)o1 (stereo partly shown) | 65 to 70 |  |
| CN(C)C(=O)[C@H](Cc1c[nH]c2ccccc12)NC1CCC(c2ccccc2)(N(C)C)CC1.Cl.Cl (stereo partly drawn) [Example 6, (S)-2-(4-(dimethylamino)-4-phenylcyclohexylamino)-3-(1H-indol-3-yl)-N,N-dimethylpropanamide dihydrochloride] |  | 15 |
| Cc1csc([C@@H](Cc2c[nH]c3ccccc23)NC2CCC(c3ccccc3)(N(C)C)CC2)n1 (stereo partly shown) | 71 to 74 |  |
